Experimental data taken from paper PMC10426190 (Breast Cancer Research : BCR, 2023).

System: E2-induced (ER target) genes in MCF7
Test: Gene expression analysis by RNA-sequencing in MCF7 with E2 stimulation
Format: cell-based, human
Conditions: MCF7; 1 nM E2 ± 1 μM compound, 24 h
Method: MCF7 were cultured in hormone deprivation media (with 10% charcoal-stripped FBS) for at least 3 days before assay. Trypsinized cells were seeded in a 12-well plate, stimulated with 1 nM β-estradiol (E2), and treated with/without 1 μM compounds for 24 h. Total RNA was extracted using the TRIzol reagent according to the manufacturer’s protocol. RNA purity and quantification were evaluated using the NanoDrop 2000 spectrophotometer (Thermo Scientific, USA). RNA integrity was assessed using the Agilent 2100 Bioanalyzer (Agilent Technologies, Santa Clara, CA, USA). Then the libraries were constructed using TruSeq Stranded mRNA LT Sample Prep Kit (Illumina, San Diego, CA, USA) according to the manufacturer’s instructions. The transcriptome sequencing and analysis were conducted by OE Biotech Co., Ltd. (Shanghai, China). The libraries were sequenced on an Illumina HiSeq X Ten platform and 150 bp paired-end reads were generated. […] Raw data (raw reads) of FASTq format were firstly processed using Trimmomatic and the low-quality reads were removed to obtain the clean reads. […] The clean reads were mapped to the human genome (GRCh38) using HISAT2 [27]. FPKM [28] of each gene was calculated using Cufflinks, and the read counts of each gene were obtained by HTSeqcount. Differential expression analysis was performed using the DESeq (2012) R package.
MCF7 with hormone-deprived pre-treatment were administrated ER ligands or not present with 1 nM E2 stimulation for 24 h incubation in a 12-well plate. Total mRNA was isolated from treated cells and sequenced on an Illumina HiSeq X Ten platform. FPKM of each gene was calculated using Cufflinks and Differential expression genes analysis by using the DESeq (2012) R package. […] T47D EFM-19 and HCC1500 cells were grown in RPMI media supplemented with 10% charcoal-stripped FBS for 14 days and then treated with ER antagonist (1 μM) or DMSO in the presence E2 (1nM) stimulation for 24 h before RNA isolation and gene expression analysis as described in methods. […] The uteruses were harvested 24 h after the final doses and stained by toluidine blue. Endometrial height was assessed from the basement membrane to the luminal border (scale bar in green lines: 200 μm), Arrows indicate the uterine epithelium (e).

CC/C(=C(\c1ccc(O)cc1)c1ccc(OCCN(C)C)cc1)c1ccccc1 [4-OH-tamoxifen]
KIF18B expression: 3.84 FPKM | KIFC1 expression: 15.12 FPKM | KLK11 expression: 4.66 FPKM | KNL1 expression: 4.05 FPKM | KNTC1 expression: 6.86 FPKM | LHX2 expression: 1.62 FPKM | LIG1 expression: 23.58 FPKM | LMNB1 expression: 53.86 FPKM | MAD2L1 expression: 7.76 FPKM | MCM2 expression: 31.78 FPKM | MCM3 expression: 34.54 FPKM | MCM4 expression: 49.01 FPKM | MCM5 expression: 13.27 FPKM | MCM6 expression: 24.55 FPKM | MCM7 expression: 84.30 FPKM | MCM10 expression: 3.64 FPKM | MELK expression: 11.34 FPKM | MKI67 expression: 21.80 FPKM | MYB expression: 5.81 FPKM | MYBL1 expression: 1.32 FPKM | MYBL2 expression: 46.03 FPKM | NCAPG2 expression: 19.25 FPKM | NCAPG expression: 7.03 FPKM | NPY1R expression: 8.44 FPKM | ORC1 expression: 3.13 FPKM | ORC6 expression: 7.62 FPKM | PAQR4 expression: 12.98 FPKM | PBK expression: 16.47 FPKM | PCLAF expression: 33.01 FPKM | PCNA expression: 59.31 FPKM | PDZK1 expression: 3.59 FPKM | PGR expression: 1.93 FPKM | PKIB expression: 26.05 FPKM | PKMYT1 expression: 12.25 FPKM | POLA1 expression: 3.09 FPKM | POLA2 expression: 5.57 FPKM | POLD1 expression: 11.86 FPKM | POLE2 expression: 2.61 FPKM | POLE expression: 12.83 FPKM | POLQ expression: 2.74 FPKM | PRIM1 expression: 10.94 FPKM | PRSS23 expression: 68.31 FPKM | RAB31 expression: 11.89 FPKM | RAD51AP1 expression: 5.44 FPKM | RAD51 expression: 4.02 FPKM | RAD54L expression: 4.39 FPKM | RAMP3 expression: 3.44 FPKM | RAPGEFL1 expression: 6.63 FPKM | RBL1 expression: 2.35 FPKM | RECQL4 expression: 13.74 FPKM | RERG expression: 3.48 FPKM | RET expression: 4.49 FPKM | RFC2 expression: 18.64 FPKM | RFC3 expression: 4.62 FPKM | RFC4 expression: 14.31 FPKM | RNASEH2A expression: 30.81 FPKM | RRM1 expression: 20.41 FPKM | RRM2 expression: 33.29 FPKM | RUBCNL expression: 1.01 FPKM | SDK2 expression: 0.95 FPKM | SFXN2 expression: 8.23 FPKM | SHCBP1 expression: 3.43 FPKM | SKA3 expression: 5.48 FPKM | SLC6A14 expression: 24.37 FPKM | SMC2 expression: 7.20 FPKM | SPC24 expression: 7.06 FPKM | SPC25 expression: 7.65 FPKM | STC2 expression: 84.89 FPKM | TACC3 expression: 21.35 FPKM | TCF19 expression: 8.96 FPKM | TCOF1 expression: 10.86 FPKM | TGM2 expression: 3.69 FPKM | TICRR expression: 4.37 FPKM | TK1 expression: 57.95 FPKM | TMEM26 expression: 2.14 FPKM | TMEM164 expression: 10.65 FPKM | TONSL expression: 9.87 FPKM | TOP2A expression: 30.91 FPKM | TP73 expression: 1.32 FPKM | TRIP13 expression: 8.37 FPKM | TUBA1B expression: 555.45 FPKM | TUBB expression: 291.22 FPKM | TYMS expression: 31.45 FPKM | UBE2C expression: 31.96 FPKM | UBE2T expression: 41.94 FPKM | UHRF1 expression: 9.20 FPKM | UNG expression: 32.49 FPKM | WDHD1 expression: 4.95 FPKM | WDR62 expression: 5.88 FPKM | WDR76 expression: 1.87 FPKM | XRCC2 expression: 3.37 FPKM | XRCC3 expression: 8.89 FPKM | ZGRF1 expression: 1.82 FPKM | ZNF367 expression: 5.84 FPKM
